Measurements from ChEMBL document CHEMBL1201862, “PubChem BioAssay data set” (2004).
Active and inactive are the calls of the source.

What was measured:
[1] = biological target: T1, Orexin/Hypocretin receptor type 1 (Homo sapiens, UniProt O43613); assay: Homogeneous Time Resolved Fluorescence (HTRF)-based cell-based high throughput dose response assay for antagonists of the orexin 1 receptor (OX1R; HCRTR1). [Related pubchem assays (depositor defined):AID434989, AID435008, AID463079, AID485270, AID492963, AID492964, AID492965, AID493232, AID504717, AID504718]; assay type: functional
T1 sequence (O43613 whole entry): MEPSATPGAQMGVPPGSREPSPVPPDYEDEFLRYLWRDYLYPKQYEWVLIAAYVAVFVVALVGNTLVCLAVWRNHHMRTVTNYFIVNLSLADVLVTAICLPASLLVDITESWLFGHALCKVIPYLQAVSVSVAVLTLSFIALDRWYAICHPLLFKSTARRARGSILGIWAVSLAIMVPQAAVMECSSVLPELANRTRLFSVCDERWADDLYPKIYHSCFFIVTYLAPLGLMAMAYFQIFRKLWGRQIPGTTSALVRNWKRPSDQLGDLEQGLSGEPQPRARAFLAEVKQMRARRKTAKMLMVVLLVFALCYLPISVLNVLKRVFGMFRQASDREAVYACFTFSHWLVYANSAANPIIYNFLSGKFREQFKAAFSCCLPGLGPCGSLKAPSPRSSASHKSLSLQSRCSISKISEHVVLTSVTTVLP

CHO-K1 = assay: (§1) Counterscreen for antagonists of the orexin 1 receptor (OX1R; HCRTR1): Homogeneous time resolved fluorescence (HTRF)-based cell-based dose response assay to identify antagonists of the parental CHO-K1 cell line. [Related pubchem assays (depositor defined):AID434989, AID435008, AID463079, AID485270, AID492963, AID492964, AID492965, AID493232, AID504699, AID504701]; assay type: functional; settings: Cricetulus griseus
[2] = as §1, with “Fluorescence-based” for “Homogeneous time resolved fluorescence (HTRF)-based”, “cell-based high throughput” for “cell-based”, “CHO” for “CHO-K1”; assay type: functional
Orexin receptor type 2 [3] = biological target: T2, Orexin receptor type 2 (Homo sapiens, UniProt O43614); assay: Counterscreen assay for antagonists of the orexin 1 receptor (OX1R; HCRTR1): Fluorescence-based cell-based dose response assay for antagonists of the orexin 2 receptor (OX2R; HCRTR2), run by assay provider.; assay type: functional
T2 sequence (O43614 whole entry): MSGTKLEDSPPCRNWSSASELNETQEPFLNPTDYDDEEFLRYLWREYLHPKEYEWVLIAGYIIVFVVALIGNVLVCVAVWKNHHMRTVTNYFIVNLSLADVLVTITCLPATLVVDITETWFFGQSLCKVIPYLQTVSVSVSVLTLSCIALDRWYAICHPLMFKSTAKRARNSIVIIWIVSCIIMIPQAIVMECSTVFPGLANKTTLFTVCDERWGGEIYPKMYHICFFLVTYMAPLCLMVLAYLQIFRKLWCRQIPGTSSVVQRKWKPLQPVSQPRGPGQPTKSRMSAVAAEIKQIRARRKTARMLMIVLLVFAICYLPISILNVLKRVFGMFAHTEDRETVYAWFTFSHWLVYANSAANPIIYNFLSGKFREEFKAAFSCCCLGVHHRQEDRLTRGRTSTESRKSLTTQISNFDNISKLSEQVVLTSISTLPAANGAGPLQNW

Orexin receptor type 2 [4] = biological target: T2, Orexin receptor type 2; assay: Counterscreen assay for antagonists of the orexin 1 receptor (OX1R; HCRTR1): Homogeneous Time Resolved Fluorescence (HTRF)-based cell-based dose response assay for antagonists of the orexin 2 receptor (OX2R; HCRTR2), run by assay provider.; assay type: functional
[5] = biological target: T1, Orexin/Hypocretin receptor type 1; assay: Fluorescence-based cell-based high throughput dose response assay for antagonists of the orexin 1 receptor (OX1R; HCRTR1). [Related pubchem assays (depositor defined):AID434989, AID435008, AID463079, AID485270, AID492963, AID492964, AID492965, AID493232, AID504717, AID504718]; assay type: functional
[6] = biological target: T3, High affinity choline transporter 1 (Homo sapiens, UniProt Q9GZV3); assay: human choline transporter potentiators, potency – cell-based, 10-point CRC, membrane potential dye, dose response (AID 602376); assay type: functional
T3 sequence (Q9GZV3 whole entry): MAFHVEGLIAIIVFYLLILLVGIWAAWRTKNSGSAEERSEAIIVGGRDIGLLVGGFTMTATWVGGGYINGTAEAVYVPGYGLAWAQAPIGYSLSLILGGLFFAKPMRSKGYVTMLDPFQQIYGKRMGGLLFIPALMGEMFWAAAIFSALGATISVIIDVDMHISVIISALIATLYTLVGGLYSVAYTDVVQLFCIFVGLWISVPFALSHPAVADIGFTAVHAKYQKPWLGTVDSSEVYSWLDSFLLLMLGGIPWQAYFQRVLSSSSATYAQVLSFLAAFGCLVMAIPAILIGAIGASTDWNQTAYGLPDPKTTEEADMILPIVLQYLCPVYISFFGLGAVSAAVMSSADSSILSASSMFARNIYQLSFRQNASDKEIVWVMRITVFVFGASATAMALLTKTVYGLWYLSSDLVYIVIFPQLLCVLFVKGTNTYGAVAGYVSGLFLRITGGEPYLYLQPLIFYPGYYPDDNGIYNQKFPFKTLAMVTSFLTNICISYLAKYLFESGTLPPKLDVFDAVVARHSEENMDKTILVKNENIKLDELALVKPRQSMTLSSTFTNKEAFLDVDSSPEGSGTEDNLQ

[7] = biological target: Glycogen synthase kinase-3 alpha (Homo sapiens, UniProt P49840); assay: Inhibition of Human GSK-3 alpha Activity Measured in Biochemical System Using Microfluidics - 2063-06_Inhibitor_Dose_DryPowder_Activity_Set2. [Related pubchem assays (depositor defined):AID2709]
Chain of Glycogen synthase kinase-3 alpha (P49840 whole entry): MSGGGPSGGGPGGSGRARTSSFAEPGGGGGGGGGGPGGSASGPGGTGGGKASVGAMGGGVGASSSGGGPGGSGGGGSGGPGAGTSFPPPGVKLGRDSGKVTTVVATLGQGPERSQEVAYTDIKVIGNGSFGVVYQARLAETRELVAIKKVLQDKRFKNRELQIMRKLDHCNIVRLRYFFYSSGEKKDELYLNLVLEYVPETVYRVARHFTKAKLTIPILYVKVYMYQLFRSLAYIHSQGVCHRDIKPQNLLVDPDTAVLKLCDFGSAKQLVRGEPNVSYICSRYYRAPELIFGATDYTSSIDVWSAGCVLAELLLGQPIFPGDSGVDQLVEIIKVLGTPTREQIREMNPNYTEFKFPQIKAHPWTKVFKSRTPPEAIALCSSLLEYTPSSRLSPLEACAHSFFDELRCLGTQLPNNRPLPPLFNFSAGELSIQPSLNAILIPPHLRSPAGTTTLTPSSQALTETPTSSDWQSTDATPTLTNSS

Streptococcus = assay: GAS UMAA2166 growth inhibition – luminescence, BacTiterGlo, counter-screen for streptokinase expression inhibitor project, dose response (AID 1915); assay type: functional, organism-based;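 also: potency for reduction of bacterial viability or growth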
[8] = biological target: Glycogen synthase kinase-3 beta (Homo sapiens, UniProt P49841); assay: Inhibition of Human GSK-3 beta Activity Measured in Biochemical System Using Microfluidics - 2063-05_Inhibitor_Dose_DryPowder_Activity_Set2. [Related pubchem assays (depositor defined):AID2709]
Chain of Glycogen synthase kinase-3 beta (P49841 whole entry): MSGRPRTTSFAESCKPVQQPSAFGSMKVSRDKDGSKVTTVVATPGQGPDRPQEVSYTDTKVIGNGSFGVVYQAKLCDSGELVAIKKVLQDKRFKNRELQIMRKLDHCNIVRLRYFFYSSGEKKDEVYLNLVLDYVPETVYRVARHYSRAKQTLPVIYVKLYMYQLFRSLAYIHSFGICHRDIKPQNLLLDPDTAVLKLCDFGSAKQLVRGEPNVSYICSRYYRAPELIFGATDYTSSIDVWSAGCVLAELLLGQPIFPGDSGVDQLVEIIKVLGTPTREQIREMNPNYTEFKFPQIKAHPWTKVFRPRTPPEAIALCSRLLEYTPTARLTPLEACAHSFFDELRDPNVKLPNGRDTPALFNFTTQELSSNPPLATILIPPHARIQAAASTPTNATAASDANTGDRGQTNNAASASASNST

[9] = Luminescence Cell-Based Dose Retest to Confirm Inhibitors of Cancer Stem Cells. [Related pubchem assays (depositor defined):AID2717, AID2721]; assay type: functional; settings: Homo sapiens
Streptokinase A = biological target: T4, Streptokinase A (Streptococcus pyogenes serotype M1, UniProt P10520); assay: viability-normalized secreted streptokinase activity reduction – plasminogen activation absorbance, OD405, dose response (AID 1914); assay type: functional, Streptococcus pyogenes M1 GAS;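 also: secreted streptokinase activity via plasminogen activation per viability signal from cell pellet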
T4 sequence (P10520 whole entry): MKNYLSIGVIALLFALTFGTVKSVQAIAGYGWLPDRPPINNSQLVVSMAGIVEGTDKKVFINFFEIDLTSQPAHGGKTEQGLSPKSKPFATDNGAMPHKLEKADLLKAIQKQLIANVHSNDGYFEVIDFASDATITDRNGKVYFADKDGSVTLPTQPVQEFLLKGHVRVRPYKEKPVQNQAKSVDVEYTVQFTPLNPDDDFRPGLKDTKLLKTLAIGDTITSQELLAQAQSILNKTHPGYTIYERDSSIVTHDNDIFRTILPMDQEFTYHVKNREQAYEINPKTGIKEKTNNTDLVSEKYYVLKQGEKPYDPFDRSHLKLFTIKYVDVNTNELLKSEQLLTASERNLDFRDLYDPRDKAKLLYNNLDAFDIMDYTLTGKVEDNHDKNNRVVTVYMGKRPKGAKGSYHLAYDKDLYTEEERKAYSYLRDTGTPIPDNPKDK

[10] = biological target: Cyclin-dependent kinase 5/CDK5 activator 1 (Homo sapiens, UniProt Q00535); assay: human CDK5 activity blockade – biochemical, microfluidic mobility shift, dry powder, selectivity assay for GSK-3 alpha inhibitor project, dose response (AID 588430)
Chain of Cyclin-dependent kinase 5/CDK5 activator 1 (Q00535 whole entry): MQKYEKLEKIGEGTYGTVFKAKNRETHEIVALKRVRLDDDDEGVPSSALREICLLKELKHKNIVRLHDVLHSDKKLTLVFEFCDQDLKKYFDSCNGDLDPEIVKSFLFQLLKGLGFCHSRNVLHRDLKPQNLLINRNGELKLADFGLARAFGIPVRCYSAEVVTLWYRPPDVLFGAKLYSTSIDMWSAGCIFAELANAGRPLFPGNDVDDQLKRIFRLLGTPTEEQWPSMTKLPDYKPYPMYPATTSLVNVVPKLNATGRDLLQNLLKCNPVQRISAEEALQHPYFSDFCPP
Chain of Cyclin-dependent kinase 5/CDK5 activator 1 (Q15078 whole entry, further chain): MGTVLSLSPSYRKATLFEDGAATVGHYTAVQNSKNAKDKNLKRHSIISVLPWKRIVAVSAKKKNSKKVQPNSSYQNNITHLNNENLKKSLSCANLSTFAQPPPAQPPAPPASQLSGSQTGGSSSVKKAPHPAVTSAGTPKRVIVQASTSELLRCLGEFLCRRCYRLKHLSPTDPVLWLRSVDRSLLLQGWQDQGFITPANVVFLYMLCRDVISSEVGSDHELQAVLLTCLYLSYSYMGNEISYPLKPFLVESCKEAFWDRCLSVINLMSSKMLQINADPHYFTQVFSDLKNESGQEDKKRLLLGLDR

[11] = tested on: Streptococcus sp. 'group A'; assay: Streptococcus pyogenes SK(-)GAS viability under kanamycin – luminescence, BacTiterGlo, confirmation, counter-screen for streptokinase expression inhibitor project, dose response (AID 1900); assay type: functional, organism-based
Activin receptor type-1 = Activin receptor type-1 (Homo sapiens, UniProt Q04771); assay: Navigating the Kinome. Panel member name: ACVR1; assay type: functional
Chain of Activin receptor type-1 (Q04771 whole entry): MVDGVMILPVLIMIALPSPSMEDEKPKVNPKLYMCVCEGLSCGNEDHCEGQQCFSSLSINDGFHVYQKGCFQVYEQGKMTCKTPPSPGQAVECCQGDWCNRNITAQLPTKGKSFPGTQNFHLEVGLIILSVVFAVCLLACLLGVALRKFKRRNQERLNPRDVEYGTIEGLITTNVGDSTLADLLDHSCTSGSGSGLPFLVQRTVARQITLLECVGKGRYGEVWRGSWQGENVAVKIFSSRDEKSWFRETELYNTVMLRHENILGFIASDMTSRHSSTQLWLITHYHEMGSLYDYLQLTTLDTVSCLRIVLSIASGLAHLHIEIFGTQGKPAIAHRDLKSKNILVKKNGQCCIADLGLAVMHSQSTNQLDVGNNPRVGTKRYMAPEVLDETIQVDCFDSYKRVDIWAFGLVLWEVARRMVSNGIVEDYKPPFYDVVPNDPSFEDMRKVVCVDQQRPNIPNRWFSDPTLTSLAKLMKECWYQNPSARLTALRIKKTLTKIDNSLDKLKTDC

[12] = biological target: Dual specificity protein kinase CLK4 (Homo sapiens, UniProt Q9HAZ1); assay type: functional
Chain of Dual specificity protein kinase CLK4 (Q9HAZ1 whole entry): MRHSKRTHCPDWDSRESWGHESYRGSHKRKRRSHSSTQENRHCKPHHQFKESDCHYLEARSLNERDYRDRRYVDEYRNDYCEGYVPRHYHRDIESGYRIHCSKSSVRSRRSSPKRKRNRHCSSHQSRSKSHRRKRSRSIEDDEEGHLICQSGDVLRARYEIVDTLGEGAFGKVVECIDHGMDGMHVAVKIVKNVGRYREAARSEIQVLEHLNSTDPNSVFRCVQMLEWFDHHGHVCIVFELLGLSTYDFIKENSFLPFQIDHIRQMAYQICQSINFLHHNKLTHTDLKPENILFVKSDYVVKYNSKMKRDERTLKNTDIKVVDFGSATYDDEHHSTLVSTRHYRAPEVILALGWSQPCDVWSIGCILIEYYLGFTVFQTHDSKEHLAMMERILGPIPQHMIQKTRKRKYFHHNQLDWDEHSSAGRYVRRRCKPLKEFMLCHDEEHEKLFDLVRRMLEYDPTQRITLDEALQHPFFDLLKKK

Question: For `CCc1cc2c(SCC(=O)N(CC)c3c(N)n(Cc4ccccc4)c(=O)[nH]c3=O)ncnc2s1`, which IC50 [1] is on record?
Answer: The IC50 was 0.34 µM (active).

Question: And the IC50 (CHO-K1)?
Answer: Its IC50 is > 66.2 µM (inactive).

Question: And the IC50 [2]?
Answer: The IC50 was > 49.8 µM (inactive).

Question: What about the IC50 (Orexin receptor type 2 [3]) of the same compound?
Answer: Its IC50 is 31.5 µM (inactive).

Question: What about the IC50 (Orexin receptor type 2 [4]) of the same compound?
Answer: Its IC50 is 1.71 µM (active).

Question: And the IC50 [5]?
Answer: The IC50 was 6.12 µM (active).

Question: Which EC50 [6] does the source give for `c1ccc(Cn2c[n+](Cc3ccccc3)c3ccccc32)cc1` here?
Answer: Its EC50 is 5.76 µM (active).

Question: With `Nc1nc(Nc2ccccc2)nc(NC2CCCCC2)c1[N+](=O)[O-]` as the compound, how does the AC50 [7] read?
Answer: The AC50 was 2.6 µM (active).

Question: And the EC50 (Streptococcus)?
Answer: Its EC50 is 8.07 µM (active).

Question: And the AC50 [8]?
Answer: The AC50 was 1.04 µM (active).

Question: What about the AC50 [9] of the same compound?
Answer: The AC50 was 4.62 µM (active).

Question: And the EC50 (Streptokinase A)?
Answer: The EC50 was > 150 µM (not active).

Question: And the AC50 [10]?
Answer: The AC50 was 2.36 µM (active).

Question: And the EC50 [11]?
Answer: The EC50 was 6.85 µM (active).

Question: Which results are given for `O=C(Nc1cccc(C(F)(F)F)n1)Nc1ccnc2cc(F)ccc12`?
Answer: Ki (Activin receptor type-1): 1.26 µM (active); Ki [12]: 2.51 µM (active)
